# Laboratory results as given in US10696615B2, “Prenylated hydroxystilbenes” (The University of Sydney, priority 2011, dated 2020).
# Tests used:
# HL-60 (TB) = assay: NCI in vitro cancer screen, Leukemia; format: cell-based, human; details: HL-60 (TB)
# MOLT-4 = assay: NCI in vitro cancer screen, Leukemia; format: cell-based, human; details: MOLT-4
# RPMI-8226 = assay: NCI in vitro cancer screen, Leukemia; format: cell-based, human; details: RPMI-8226
# HOP-62 = assay: NCI in vitro cancer screen, Non-Small Cell Lung Cancer; format: cell-based, human; details: HOP-62
# HOP-92 = assay: as above; format: cell-based, human; details: HOP-92
# NCI-H23 = assay: as above; format: cell-based, human; details: NCI-H23
# NCI-H460 = assay: as above; format: cell-based, human; details: NCI-H460
# COLO 205 = assay: NCI in vitro cancer screen, Colon Cancer; format: cell-based, human; details: COLO 205
# HCT-15 = assay: NCI in vitro cancer screen, Colon Cancer; format: cell-based, human; details: HCT-15
# HT29 = assay: NCI in vitro cancer screen, Colon Cancer; format: cell-based, human; details: HT29
# KM12 = assay: NCI in vitro cancer screen, Colon Cancer; format: cell-based, human; details: KM12
# SF-268 = assay: NCI in vitro cancer screen, CNS Cancer; format: cell-based, human; details: SF-268
# SF-539 = assay: NCI in vitro cancer screen, CNS Cancer; format: cell-based; details: SF-539
# U251 = assay: NCI in vitro cancer screen, CNS Cancer; format: cell-based, human; details: U251
# LOX IMVI = assay: NCI in vitro cancer screen, Melanoma; format: cell-based, human
# MALME-3M = assay: NCI in vitro cancer screen, Melanoma; format: cell-based, human
# SK-MEL-2 = assay: NCI in vitro cancer screen, Melanoma; format: cell-based, human; details: SK-MEL-2
# UACC-62 = assay: NCI in vitro cancer screen, Melanoma; format: cell-based, human; details: UACC-62
# OVCAR-4 = assay: NCI in vitro cancer screen, Ovarian Cancer; format: cell-based, human; details: OVCAR-4
# OVCAR-5 = assay: NCI in vitro cancer screen, Ovarian Cancer; format: cell-based, human; details: OVCAR-5
# ADR-RES (NCI/ADR-RES) = assay: NCI in vitro cancer screen, Ovarian Cancer; format: cell-based, human
# A498 = assay: NCI in vitro cancer screen, Renal Cancer; format: cell-based, human; details: A498
# CAKI-1 = assay: NCI in vitro cancer screen, Renal Cancer; format: cell-based, human; details: CAKI-1
# SN12C = assay: NCI in vitro cancer screen, Renal Cancer; format: cell-based, human
# TK-10 = assay: NCI in vitro cancer screen, Renal Cancer; format: cell-based, human; details: TK-10
# UO-31 = assay: NCI in vitro cancer screen, Renal Cancer; format: cell-based, human; details: UO-31
# PC-3 = assay: NCI in vitro cancer screen, Prostate Cancer; format: cell-based, human; details: PC-3
# T-47D = assay: NCI in vitro cancer screen, Breast Cancer; format: cell-based, human
# [1] = Homo sapiens, read-out: LC50 (the source's name)
compound,measurement,setting,value
"COc1cc(O)cc(/C=C/c2ccc(O)c(O)c2)c1CC=C(C)C [USYDS9, (E)-2-(3-methyl-2-buten-1-yl)-3′,4′,5-trihydroxy-3-methoxystilbene]",TGI,HL-60 (TB),0.43 µM
same,GI50,HL-60 (TB); Homo sapiens,0.2 µM
same,CC50,HL-60 (TB); [1],0.95 µM
same,GI50,MOLT-4; Homo sapiens,1.27 µM
same,CC50,MOLT-4; [1],> 100 µM
same,TGI,MOLT-4,6.77 µM
same,GI50,RPMI-8226; Homo sapiens,0.45 µM
same,CC50,RPMI-8226; [1],> 100 µM
same,TGI,RPMI-8226,>100 µM
same,TGI,HOP-62,>100 µM
same,GI50,HOP-62; Homo sapiens,2.87 µM
same,CC50,HOP-62; [1],> 100 µM
same,TGI,HOP-92,>100 µM
same,GI50,HOP-92; Homo sapiens,0.62 µM
same,CC50,HOP-92; [1],> 100 µM
same,GI50,NCI-H23; Homo sapiens,1.43 µM
same,LC50,NCI-H23; Homo sapiens,> 100 µM
same,TGI,NCI-H23,>100 µM
same,GI50,NCI-H460; Homo sapiens,0.47 µM
same,CC50,NCI-H460; [1],75.7 µM
same,TGI,NCI-H460,10.3 µM
same,TGI,COLO 205,83.6 µM
same,GI50,COLO 205; Homo sapiens,21.7 µM
same,CC50,COLO 205; [1],> 100 µM
same,TGI,HCT-15,>100 µM
same,GI50,HCT-15; Homo sapiens,0.43 µM
same,CC50,HCT-15; [1],> 100 µM
same,TGI,HT29,46.6 µM
same,GI50,"HT29; Homo sapiens, HT-29",18.6 µM
same,CC50,"HT29; Homo sapiens, HT-29, read-out: LC50 (the source's name)",> 100 µM
same,GI50,KM12; Homo sapiens,0.52 µM
same,CC50,KM12; [1],63.9 µM
same,TGI,KM12,12.2 µM
same,GI50,SF-268; Homo sapiens,0.63 µM
same,CC50,SF-268; [1],> 100 µM
same,TGI,SF-268,37.6 µM
same,GI50,SF-539; Homo sapiens,0.28 µM
same,CC50,SF-539; [1],> 100 µM
same,TGI,SF-539,1.02 µM
same,GI50,"U251; Homo sapiens, U-251",0.59 µM
same,CC50,"U251; Homo sapiens, U-251, read-out: LC50 (the source's name)",> 100 µM
same,TGI,U251,19.6 µM
same,TGI,LOX IMVI,58.6 µM
same,GI50,LOX IMVI; Homo sapiens,0.64 µM
same,CC50,LOX IMVI; [1],> 100 µM
same,GI50,"MALME-3M; Homo sapiens, Malme-3M",0.62 µM
same,CC50,"MALME-3M; Homo sapiens, Malme-3M, read-out: LC50 (the source's name)",> 100 µM
same,TGI,MALME-3M; MALME-3M,>100 µM
same,GI50,SK-MEL-2; Homo sapiens,2.17 µM
same,LC50,SK-MEL-2; Homo sapiens,> 100 µM
same,TGI,SK-MEL-2,12.1 µM
same,GI50,UACC-62; Homo sapiens,3.22 µM
same,CC50,UACC-62; [1],> 100 µM
same,TGI,UACC-62,34.8 µM
same,GI50,OVCAR-4; Homo sapiens,5.48 µM
same,CC50,OVCAR-4; [1],> 100 µM
same,TGI,OVCAR-4,>100 µM
same,GI50,OVCAR-5; Homo sapiens,30.7 µM
same,CC50,OVCAR-5; [1],> 100 µM
same,TGI,OVCAR-5,>100 µM
same,TGI,ADR-RES (NCI/ADR-RES); ADR-RES,3.69 µM
same,GI50,"ADR-RES (NCI/ADR-RES); Homo sapiens, NCI/ADR-RES",0.29 µM
same,CC50,"ADR-RES (NCI/ADR-RES); Homo sapiens, NCI/ADR-RES, read-out: LC50 (the source's name)",> 100 µM
same,TGI,A498,53.5 µM
same,GI50,A498; Homo sapiens,10.3 µM
same,CC50,A498; [1],> 100 µM
same,TGI,CAKI-1,>100 µM
same,GI50,CAKI-1; Homo sapiens,19.1 µM
same,CC50,CAKI-1; [1],> 100 µM
same,TGI,SN12C,83.5 µM
same,GI50,SN12C; Homo sapiens,1.76 µM
same,CC50,SN12C; [1],> 100 µM
same,GI50,TK-10; Homo sapiens,5.34 µM
same,LC50,TK-10; Homo sapiens,> 100 µM
same,TGI,TK-10,41.2 µM
same,GI50,UO-31; Homo sapiens,0.46 µM
same,CC50,UO-31; [1],> 100 µM
same,TGI,UO-31,>100 µM
same,GI50,PC-3; Homo sapiens,2.92 µM
same,CC50,PC-3; [1],> 100 µM
same,TGI,PC-3,>100 µM
same,TGI,T-47D,36.9 µM
same,GI50,"T-47D; Homo sapiens, T47D",4.78 µM
same,CC50,"T-47D; Homo sapiens, T47D, read-out: LC50 (the source's name)",> 100 µM
